Three compounds from patent US20240369539A1, “AN ADHERENT CELL CULTURE METHOD FOR GENERATING TIGHT JUNCTION BETWEEN CELLS AND ITS PRODUCT APPLICATION” (ZHEJIANG UNIVERSITY, priority 2021, published 2024) can be followed below.

Data set [1] deals with in vitro blood-brain barrier model (membranous cell sheet formed by endothelial cells).
The test system is the same in data set [2]. Description: test of a blood-brain barrier toxic drug on the in vitro blood-brain barrier model. The following applies: FIG. 20. The procedure: A test of a blood-brain barrier toxic drug is carried out to determine the response of the blood-brain barrier model constructed in the embodiment to the blood-brain barrier toxic drug.

Regarding `N[C@@H](Cc1ccc(O)c(O)c1)C(=O)O` [L-dopamine], the “content detected in the lower chamber” value in data set [1] is “significantly higher than that of the dopamine”. Take `CN[C@@H](C)Cc1ccccc1` [methamphetamine]: the “barrier function of the blood-brain barrier model” value in data set [2] (after self-recovery for 24 hours following drug treatment) is reported as “significantly improved”; in data set [2] (after treatment with the blood-brain barrier toxic drug) it was “significantly reduced”.

For `NCCc1ccc(O)c(O)c1` [dopamine], the “content detected in the lower chamber” value in data set [1] was “the content of the L-dopamine detected in the lower chamber is significantly higher than that of the dopamine”.
